According to ChEMBL document CHEMBL1139077, “Dopamine/serotonin receptor ligands. Part 15: Oxygenation of the benz-indolo-azecine LE 300 leads to novel subnanomolar dopamine D1/D5 antagonists” (Bioorg Med Chem Lett, 2007):
Active and inactive are the calls of the source. The rule behind the calls is not given here.

Columns and labels:
D(1A) dopamine receptor [1] = target: T1, D(1A) dopamine receptor (Homo sapiens, UniProt P21728); experiment: Displacement of [3H]SCH 23390 from human cloned dopamine D1 receptor expressed in HEK 293 cells; type: cell-based, HEK293
D(2) dopamine receptor [2] = target: T2, D(2) dopamine receptor (Homo sapiens, UniProt P14416); experiment: Displacement of [3H]spiperone from human cloned dopamine D2L receptor expressed in CHO cells; type: cell-based
D(3) dopamine receptor = D(3) dopamine receptor (Homo sapiens, UniProt P35462); experiment: Binding affinity to human cloned dopamine D3 receptor expressed in CHO cells; type: cell-based
[3] = Binding affinity to human cloned dopamine D4.4 receptor expressed in CHO cells; type: cell-based
D(1B) dopamine receptor [4] = target: T3, D(1B) dopamine receptor (Homo sapiens, UniProt P21918); experiment: Binding affinity to human cloned dopamine D5 receptor expressed in HEK 293 cells; type: cell-based, HEK293
D(1A) dopamine receptor [5] = target: T1, D(1A) dopamine receptor; experiment: Agonist activity at human dopamine D1 receptor assessed as increase in […] calcium concentration by calcium fluorescence assay; type: functional
D(1B) dopamine receptor [6] = target: T3, D(1B) dopamine receptor; experiment: Agonist activity at human dopamine D5 receptor assessed as increase in […] calcium concentration by calcium fluorescence assay; type: functional
D(2) dopamine receptor [7] = target: T2, D(2) dopamine receptor; experiment: Agonist activity at human dopamine D2 receptor assessed as increase in […] calcium concentration by calcium fluorescence assay; type: functional
D(2) dopamine receptor [8] = target: T2, D(2) dopamine receptor; experiment: Activity at human dopamine D2 receptor assessed as quinpirol-induced suppression of calcium signal by calcium fluorescence assay; type: functional
D(1B) dopamine receptor [9] = target: T3, D(1B) dopamine receptor; experiment: Activity at human dopamine D5 receptor assessed as SKF 38393-induced suppression of calcium signal by calcium fluorescence assay; type: functional

T3 sequence (P21918 whole entry): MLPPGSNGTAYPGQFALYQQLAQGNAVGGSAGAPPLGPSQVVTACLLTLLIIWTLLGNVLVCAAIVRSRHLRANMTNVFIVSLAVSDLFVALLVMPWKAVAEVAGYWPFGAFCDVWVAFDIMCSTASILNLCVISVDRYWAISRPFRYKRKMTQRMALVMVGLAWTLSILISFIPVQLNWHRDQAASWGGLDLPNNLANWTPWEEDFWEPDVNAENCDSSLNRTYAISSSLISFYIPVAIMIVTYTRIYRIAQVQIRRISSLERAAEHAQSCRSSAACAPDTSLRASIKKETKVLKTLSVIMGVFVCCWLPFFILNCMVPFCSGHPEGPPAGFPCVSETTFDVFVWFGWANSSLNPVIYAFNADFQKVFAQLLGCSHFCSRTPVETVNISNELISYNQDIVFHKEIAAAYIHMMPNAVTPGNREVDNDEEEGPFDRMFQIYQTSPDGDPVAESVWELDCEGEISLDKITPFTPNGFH
T1 sequence (P21728 whole entry): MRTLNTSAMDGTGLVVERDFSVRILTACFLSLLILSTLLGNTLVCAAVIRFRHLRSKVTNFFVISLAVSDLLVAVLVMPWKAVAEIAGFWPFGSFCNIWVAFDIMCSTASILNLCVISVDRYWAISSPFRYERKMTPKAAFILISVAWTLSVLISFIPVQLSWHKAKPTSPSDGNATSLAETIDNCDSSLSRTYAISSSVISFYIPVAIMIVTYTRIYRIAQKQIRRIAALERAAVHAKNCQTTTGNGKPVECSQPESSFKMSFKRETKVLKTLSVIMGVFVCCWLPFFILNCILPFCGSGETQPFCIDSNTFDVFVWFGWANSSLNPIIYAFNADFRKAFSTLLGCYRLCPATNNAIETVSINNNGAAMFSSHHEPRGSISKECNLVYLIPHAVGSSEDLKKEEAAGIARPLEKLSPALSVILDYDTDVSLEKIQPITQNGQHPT
Chain of D(3) dopamine receptor (P35462 whole entry): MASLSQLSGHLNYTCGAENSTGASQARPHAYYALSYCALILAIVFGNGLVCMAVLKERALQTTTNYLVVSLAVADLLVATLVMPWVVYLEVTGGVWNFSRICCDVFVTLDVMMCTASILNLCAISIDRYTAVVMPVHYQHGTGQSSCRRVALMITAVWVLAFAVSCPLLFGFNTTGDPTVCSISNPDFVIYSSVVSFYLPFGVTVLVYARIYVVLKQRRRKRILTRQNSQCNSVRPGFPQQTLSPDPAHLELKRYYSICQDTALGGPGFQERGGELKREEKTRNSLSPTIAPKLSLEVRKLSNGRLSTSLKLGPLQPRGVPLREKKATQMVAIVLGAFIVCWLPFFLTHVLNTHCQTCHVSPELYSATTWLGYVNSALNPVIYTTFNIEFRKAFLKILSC
T2 sequence (P14416 whole entry): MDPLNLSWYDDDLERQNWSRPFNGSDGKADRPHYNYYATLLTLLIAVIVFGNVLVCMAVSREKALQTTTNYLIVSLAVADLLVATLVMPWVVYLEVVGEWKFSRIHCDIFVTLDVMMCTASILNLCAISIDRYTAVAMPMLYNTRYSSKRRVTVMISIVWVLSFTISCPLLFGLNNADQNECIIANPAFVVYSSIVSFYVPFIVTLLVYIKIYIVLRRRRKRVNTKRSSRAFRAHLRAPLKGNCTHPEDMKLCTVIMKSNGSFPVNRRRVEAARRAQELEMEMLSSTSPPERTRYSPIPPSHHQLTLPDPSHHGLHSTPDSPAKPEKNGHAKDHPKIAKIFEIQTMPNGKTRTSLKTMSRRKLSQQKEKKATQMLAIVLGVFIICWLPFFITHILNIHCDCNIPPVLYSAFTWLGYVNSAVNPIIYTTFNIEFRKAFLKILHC

| Structure (SMILES) | Ki (D(1A) dopamine receptor [1]) | Ki (D(2) dopamine receptor [2]) | Ki (D(3) dopamine receptor) | Ki [3] | Ki (D(1B) dopamine receptor [4]) | Activity (D(1A) dopamine receptor [5]) | Activity (D(1B) dopamine receptor [6]) | Activity (D(2) dopamine receptor [7]) | Activity (D(2) dopamine receptor [8]) | Activity (D(1B) dopamine receptor [9]) |
| --- | --- | --- | --- | --- | --- | --- | --- | --- | --- | --- |
| COc1ccc2c(c1)CCN(C)CCc1c([nH]c3ccccc13)C2 | 19 nM | 22.8 nM | 1140 nM | 92.6 nM | 31.5 nM |  |  |  |  |  |
| COc1ccc2c(c1)c1c(n2C)Cc2ccccc2CCN(C)CC1 | 2 nM | 1.7 nM | 3.78 nM | 21.6 nM | 0.23 nM |  |  |  |  |  |
| CN1CCc2ccccc2Cc2ccc(O)cc2CC1 |  |  |  |  |  | inactive | inactive |  |  |  |
| CN1CCc2cc(O)ccc2Cc2[nH]c3ccccc3c2CC1 | 3.7 nM | 74.7 nM | 2070 nM | 1360 nM | 5.4 nM |  |  |  |  |  |
| CN1CCc2ccccc2Cc2[nH]c3ccc(O)cc3c2CC1 | 0.56 nM | 38.4 nM | 944 nM | 398 nM | 0.39 nM |  |  |  |  |  |
| CN1CCc2ccccc2Cc2[nH]c3ccccc3c2CC1 |  |  | 40.3 nM | 109 nM |  | inactive | inactive | inactive | Active | Active |
| COc1ccc2[nH]c3c(c2c1)CCN(C)CCc1ccccc1C3 | 0.82 nM | 11.9 nM | 475 nM | 266 nM | 3.6 nM |  |  |  |  |  |
| COc1ccc2c(c1)CCN(C)CCc1ccccc1C2 |  |  |  | 43.4 nM | 38.3 nM |  |  |  |  |  |
